Results reported in paper PMC9671962 (Communications Biology, 2022).
Where “and” joins values, the source holds several entries; their conditions need not be identical. Equal entries are not always repeated.

Legend:
COG-N-415x = test: Pre-clinical efficacy study, COG-N-415x PDX; format: in vivo; settings: single mouse
Experimental: (§1) Patient demographics and genetic characteristics are listed in (Supplementary Tables 1, 2)[17]. The maximum tolerated dose (MTD) was determined to be 36 MBq/kg administered by intra-peritoneal injection twice weekly for a total of 4 dose fractions and this fractionated regimen was used in all studies (Supplementary Fig. 1)[18],[19]. […] Nine of 11 PDX models were MYCN amplified (Fig. 1b), which is a hallmark of high-risk neuroblastoma. Tumor response was measured as the maximum percent decrease in tumor volume after treatment and event-free survival (EFS) was measured by the area over the curve method with tumor events pre-defined by tumor growth exceeding 2 cm[3],[18].
(§2) The use of 2 mice per arm was based on the previously reported statistical analysis. PDX tumors were implanted into the right flank of 5 to 6-weeks old female mice weighing about 20–25 grams. […] Two additional dose levels of 12, and 24 MBq/kg/fraction were assessed in a subset of models and were administered as stated above. In two models treated at the 24 MBq/kg/fraction dose level we re-challenged tumor response at the time of tumor progression with an additional 4 dose fractions at 24 MBq/kg/fraction given twice weekly. Doses were prepared in 500 µL total volume. An equal volume of saline was used for the vehicle group. Tumors were measured using a digital caliper at the initiation of the study and two times per week during the treatment period. Tumor volumes were calculated as volume = ([…]∗0.5236)/1000. Weights were obtained twice weekly and mice were monitored daily for signs of toxicity. […] Tumor response was assessed by best response defined as greatest reduction in tumor volume following the last dose and is presented as percent change in tumor volume. Event-free survival was determined by area over the curve method that calculates the time to tumor event, which was defined as tumors reaching or exceeding a size ≥ 2 cm^3.
(§3) Animal studies were performed in female mice due to the lack of sex-related differences for [^211At]PTT tolerability from initial dose response studies performed in female and male mice. Female mice were chosen due to their underlying behavior towards other study subjects that reduced nonstudy-related causes for decreased wellness. Pre-clinical efficacy studies were performed through “single mouse testing” to more closely recapitulate a clinical trial. […] Number size for treatment groups was determined by model tumor growth reproducibility, which was previously shown to have less than 5% normal variation with at least two animals. Statistical tests for tumor response and event-free survival (EFS) were performed as a grouped analysis that included all tumor models treated at each respective dose level (n = 2 per model per dose level). Statistical differences between treatment groups for tumor response was performed by paired-model T-test that compared reduction in tumor volume for the 36 MBq/kg dose level vs. 24 MBq/kg or 12 MBq/kg. Event free survival was measured by area over the curve method to quantify time to event, which was set as tumor growth exceeding 2 cm[3],[19]. Differences in EFS were tested across all treated models for each respective dose level, and against untreated controls, by paired-model ANOVA analysis. Associations of drug target expression and response were performed by linear regression analysis of EFS and PARP1 mRNA expression. Genetic signatures were visually presented as a function of EFS and no statistical tests were applied. Blood and marrow toxicity studies were performed with n = 5 sample sizes and powered to detect >20% differences between untreated controls and treated animals. Results were tested for significance by one-way ANOVA comparison from untreated controls. Marrow colony formation assays were performed in replicates of 2 for each mouse subject, dependent on marrow isolation, and all replicates are included in final analyses. […]

COG-N-440x = test: Pre-clinical efficacy study, COG-N-440x PDX; format: in vivo; settings: single mouse
Experimental: as §1, §2, §3

NB-EBC1x = test: Pre-clinical efficacy study, NB-EBC1x PDX; format: in vivo, mouse; settings: for EFS by AOC method / Tumor response (% growth from study initiation at ~ 200 mm3): single mouse; for Tumor Volume: NBEBC1 tumor re-challenge (24 MBq/kg/fraction x 4)
Experimental: as §1, §2, §3

NB-1691x = test: Pre-clinical efficacy study, NB-1691x PDX; format: in vivo; settings: 36 MBq/kg/fraction x 4 fractions, single mouse
Experimental: as §1
The use of 2 mice per arm was based on the previously reported statistical analysis. […] Two additional dose levels of 12, and 24 MBq/kg/fraction were assessed in a subset of models and were administered as stated above. […] Tumors were measured using a digital caliper at the initiation of the study and two times per week during the treatment period. Tumor volumes were calculated as volume = ((diameter^1/2 + diameter^2/2)^3∗0.5236)/1000. Weights were obtained twice weekly and mice were monitored daily for signs of toxicity. […] Tumor response was assessed by best response defined as greatest reduction in tumor volume following the last dose and is presented as percent change in tumor volume. […]

[1] = 12 MBq/kg/fraction x 4 fractions
[2] = 24 MBq/kg/fraction x 4 fractions
[3] = 36 MBq/kg/fraction x 4 fractions
[4] = NB-EBC1x, 24 MBq/kg/fraction x 4 fractions
[5] = NB-EBC1x, 36 MBq/kg/fraction x 4 fractions

## O=C1NCCn2c(-c3ccc([211At])cc3)nc3cccc1c32 [[^211At]PTT, Astatine-211-parthanatine]
COG-N-415x; [1]
  EFS by AOC method: 14.1951 days and 16.6777 days
  Tumor response (% growth from study initiation at ~ 200 mm3): 74.1936% and -21.7391%
COG-N-415x; [2]
  EFS by AOC method: 27.6 days and 26.9 days and 27.5972 days and 26.9655 days
  Tumor response (% growth from study initiation at ~ 200 mm3): -80.7692% and -84.6154%
COG-N-415x; [3]
  EFS by AOC method: 38.3761 days and 73.0746 days
  Tumor response (% growth from study initiation at ~ 200 mm3): -100% and -94.4444%
COG-N-440x; [1]
  EFS by AOC method: 28.3679 days and 26.6227 days
  Tumor response (% growth from study initiation at ~ 200 mm3): -72.727% and -75.758%
COG-N-440x; [2]
  EFS by AOC method: 50.2168 days and 42.5399 days
  Tumor response (% growth from study initiation at ~ 200 mm3): -95.833% and -100%
COG-N-440x; [3]
  EFS by AOC method: 78.8444 days and 65.1924 days
  Tumor response (% growth from study initiation at ~ 200 mm3): -100%
NB-EBC1x; NB-EBC1x, 24 MBq/kg/fraction x 4, re-challenged mouse n = 1
  EFS1 (initial treatment): 45
NB-EBC1x; [4]
  EFS by AOC method: 58.4 days
  Tumor response (% growth from study initiation at ~ 200 mm3): -100%
NB-EBC1x; [5]
  EFS by AOC method: 90.4 days and 97.6 days and 90.485 days and 97.6925 days
  Tumor response (% growth from study initiation at ~ 200 mm3): -100%
NB-EBC1x; NB-EBC1x, re-challenge 24 MBq/kg/fraction x 4 at tumor progression, progressing disease
  EFS2 (re-challenge treatment): 47
NB-EBC1x; week 0
  Tumor Volume: 0.17 cm3
NB-EBC1x; week 0.6
  Tumor Volume: 0.28 cm3
NB-EBC1x; week 1.1
  Tumor Volume: 0.24 cm3
NB-EBC1x; week 1.6
  Tumor Volume: 0.04 cm3
NB-EBC1x; week 2
  Tumor Volume: 0.01 cm3
NB-EBC1x; week 2.6
  Tumor Volume: 0 cm3
NB-EBC1x; week 3.1
  Tumor Volume: 0 cm3
NB-EBC1x; week 3.6
  Tumor Volume: 0 cm3
NB-EBC1x; week 4.1
  Tumor Volume: 0 cm3
NB-EBC1x; week 4.6
  Tumor Volume: 0 cm3
NB-EBC1x; week 5
  Tumor Volume: 0.05 cm3
NB-EBC1x; week 5.6
  Tumor Volume: 0.32 cm3
NB-EBC1x; week 6
  Tumor Volume: 0.41 cm3
NB-EBC1x; week 6.6
  Tumor Volume: 1.05 cm3
NB-EBC1x; week 7
  Tumor Volume: 0.73 cm3
NB-EBC1x; week 7.6
  Tumor Volume: 0.34 cm3
NB-EBC1x; week 8
  Tumor Volume: 0.16 cm3
NB-EBC1x; week 8.6
  Tumor Volume: 0.03 cm3
NB-EBC1x; week 9
  Tumor Volume: 0.07 cm3
NB-EBC1x; week 9.6
  Tumor Volume: 0.07 cm3
NB-EBC1x; week 10
  Tumor Volume: 0 cm3
NB-EBC1x; week 10.6
  Tumor Volume: 0 cm3
NB-EBC1x; week 11
  Tumor Volume: 0 cm3
NB-EBC1x; week 11.6
  Tumor Volume: 0 cm3
NB-EBC1x; week 12
  Tumor Volume: 0 cm3
NB-EBC1x; week 12.6
  Tumor Volume: 0.02 cm3
NB-EBC1x; week 13
  Tumor Volume: 0.06 cm3
NB-EBC1x; week 13.6
  Tumor Volume: 0.34 cm3
NB-EBC1x; week 14
  Tumor Volume: 0.98 cm3
NB-1691x
  EFS by AOC method: 50.9799 days and 78.469 days
  Tumor response (% growth from study initiation at ~ 200 mm3): -100%
